Measurements from paper PMC10159843, “Babesia duncani multi-omics identifies virulence factors and drug targets” (Nature Microbiology, 2023).

Test system: BdATVR parasites
Assay type: cell-based, Babesia duncani
Details: IC50 BdATVR versus WA1

O=C1C(O)=C([C@H]2CC[C@H](c3ccc(Cl)cc3)CC2)C(=O)c2ccccc21 [Atovaquone]
fold resistance of BdATVR compared with WA1: 15.2 fold
